Measured values published in patent US11903386B2, “Strigolactone analogs and their usage in plant control” (King Abdullah University of Science and Technology, priority 2016, dated 2024).
Entries after “also recorded” stand apart in the source; their conditions may differ.

Tests used:
Arabidopsis seedlings = test: Arabidopsis lateral root density and primary root length; format: in vivo; conditions: 1.0 μM, 8 days old seedlings
Procedure: Sterilized Arabidopsis seeds were sown on half strength MS (with 0.5% sucrose+1% agar, 0.5 g L^−1 MES, pH 5.7) plates supplemented with GR24 or MPs (at 1.0 μM). Plates were stored at 4° C. in darkness for 3 days and then vertically grown at 22° C. in Percival incubator under long day condition (16 h at 22° C./8 h at 16° C. day/night, 60% relative humidity, 4000-5000 LUX white light) for 8 days. For determining the effect on lateral root density and primary root length, at least 30 seedlings were measured using publically available ImageJ software (http://rsbweb.nih.gov/ij/) after scanning roots.

ShHTL7 = biological target: T1, ShHTL7 (Striga hermonthica, UniProt A0A0M3PNA2); test: In vitro hydrolysis assay with ShHTL7 (HPLC); format: biochemical; conditions: 10 μM substrate, 37° C.
T1 sequence (A0A0M3PNA2 1-271): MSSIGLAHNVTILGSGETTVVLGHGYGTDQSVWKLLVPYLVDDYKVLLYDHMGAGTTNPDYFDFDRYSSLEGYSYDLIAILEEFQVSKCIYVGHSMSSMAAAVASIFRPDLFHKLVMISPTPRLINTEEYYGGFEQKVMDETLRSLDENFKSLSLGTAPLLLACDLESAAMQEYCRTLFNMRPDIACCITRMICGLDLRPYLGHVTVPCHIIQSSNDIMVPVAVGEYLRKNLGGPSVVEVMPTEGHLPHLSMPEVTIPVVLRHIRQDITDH

S. hermonthica seeds = test: Striga hermonthica seed germination bioassay; format: in vivo; conditions: for Relative activity in inducing S. hermonthica seed germination: comparison between compounds
Procedure: Parasitic weed seeds (S. hermonthica and P. ramosa) germination activity was recorded as described previously (Jamil et al., 2012). Six pre-conditioned seed discs were placed in a 90 mm petri-dish containing a filter paper ring wetted with 0.9 ml sterile MilliQ water. […] GR24 solutions with equal concentrations and sterile MilliQ water were included as a positive and negative control, respectively. After application, seeds were incubated at 30° C./25° C. in the dark for two days. Germination (seeds with radical emerging through seed coat) was scored under a binocular microscope, and germination rate (%) was calculated. Statistical analyses were carried out using statistical software package R (version 3.2.2). Dose-response curves and Half Maximum Effective Concentrations (EC50) were calculated to determine optimum amount of MPs. Synthetic strigolactone analog GR24 was used as reference to estimate efficacy of selected compounds. EC50 and estimated response were calculated using drc package (https://cran.r390 project.org/web/packages/drc/) with a Four Parameter Logistic Curve (Dose Response Curve) (Ritz and Streibig, 2005).

[1] = Chemical stability of MPs in aqueous solution, monitored by HPLC; format: physicochemical; conditions: aqueous solution pH 6.8, 21° C., monitored at 24 h intervals up to 3 weeks
Procedure: Aqueous solutions of MPs (50 μg ml-1; pH 6.8) were incubated at 21° C. in amber HPLC vials. For sample preparation, 50 μl of an acetone solution (1 mg ml-1) was diluted to the final concentration with methanol (425 μl), water (500 μl) and 25 μl of 1-Indanol (1.0 mg ml-1 solution in acetone) as internal standard. […] The column was operated at 35° C. with a flow rate of 0.25 ml per min. Compounds eluted from the column were detected with a Diode array detector. Relative quantity of remaining (non-degraded) product was determined by comparison to the internal standard.

Compound | Increase of primary root length (Arabidopsis seedlings) | Reduction of number of lateral roots / lateral root density (Arabidopsis seedlings) | Hydrolysis rate by ShHTL7 (ShHTL7) | Relative activity in inducing S. hermonthica seed germination (S. hermonthica seeds) | Striga germination activity (EC50) relative to GR24, times weaker (S. hermonthica seeds; in vivo) | Stability in comparison to GR24 [1]
COC(=O)/C(=C/OC1C=C(C)C(=O)O1)c1ccc([N+](=O)[O-])cc1 (racemic) [MP1, (E)-methyl 3-(4-methyl-5-oxo-2,5-dihydrofuran-2-yloxy)-2-(4-nitrophenyl)acrylate] | the most active compound; also recorded: more efficient than GR24 | activity higher than that of GR24; also recorded: more efficient than GR24 | highest hydrolysis rates | the most potent compound | around 17 times | slightly less stable than GR24
COC(=O)/C(=C/OC1C=C(C)C(=O)O1)c1ccccc1 (racemic) [MP3, (E)-methyl 3-(4-methyl-5-oxo-2,5-dihydrofuran-2-yloxy)-2-phenylacrylate] | weaker activity than GR24 and MP8 | – | finally MP3; also recorded: higher hydrolysis activities with MP3 and MP7 than with GR24 | less active than MP1 | – | more stable than GR24
COC(=O)/C(=C/OC1C=C(C)C(=O)O1)c1ccc(Cl)cc1 (stereo not drawn) [MP7] | more efficient than GR24 | slightly more active than GR24; also recorded: more efficient than GR24 | higher hydrolysis activities with MP3 and MP7 than with GR24 | highest germination activity | – | more stable than GR24
